Data taken from patent US9695135B2, “Therapeutic catechols” (priority 2014, dated 2017).

Target: T1, PAN domain endonuclease (Influenza A virus, UniProt C3W5S0)
T1 construct: The PAN domain of 2009 pandemic H1N1 virus polymerase (residues 1-204) has now been crystallized
Assay: Endonuclease inhibition assay (FRET, FAM/MGBNFQ TaqMan-like probe cleavage by PAN)
Format: biochemical, influenza A (2009 pandemic H1N1 virus)
Settings: 25 nM endonuclease, 50 nM probe, 37 degrees Celsius, fluorescence ex 488 nm / em 518 nm
Text: A TaqMan-like oligonucleotide was used containing a 6-carboxy-fluorescein (FAM) fluorophore at the 5′-end followed by 19 nucleotides and a minor groove binding non-fluorescent quencher (MGBNFQ, Applied Biosystems) at the 3′-end. When excited by light at a wavelength of 488 nm, MGBNFQ quenches the fluorescence of FAM via fluorescence resonance energy transfer. If the endonuclease cleaves the oligonucleotide, the quencher is no longer coupled to the fluorophore, and therefore, FAM fluoresces. This assay can be performed in a high-throughput (e.g. 96 well plate) format. The assay can be used to evaluate the inhibitory characteristics of compounds that are found to bind PAN and to screen libraries of drug-like compounds. The assay uses the probe 6FAM-[…]-MGBNFQ (SEQ ID NO: 1)
The assay can be performed in a 40 μl reaction volume with 50 mM Tris pH 7.5, 50 mM NaCl, 1 mM MgSO4, 0.5 mM MnSO4, 1 mM DTT, 0.75 mM CHAPS, 50 nM probe, and 25 nM endonuclease.
The reaction mixture is set up as a master mix with the buffer, probe, and protein on ice. The inhibitor is then added to a maximum DMSO concentration of 2.5% (v/v) and serial dilutions are made on ice. Varioskan Fluorometer (Thermo Scientific), set to an excitation of 488 nm and emission of 518 nm, is used to measure the fluorescence of the samples at 37 degrees Celsius. Fluorescence is measured at various time points (5, 120, and 240 minutes) during the 37 degrees Celsius incubation. Activity/inhibition is calculated based on the change in fluorescence over time using Prism Graphpad non-linear regression analysis.

| Structure (SMILES) | IC50 |
| --- | --- |
| Oc1cc(-c2ccc(F)cc2)c(-c2ccc(F)cc2)cc1O [Example 1] | 390 nM |
| O=[N+]([O-])c1c(O)c(O)cc(-c2ccc(F)cc2)c1-c1ccc(F)cc1 [Example 2] | 434 nM |
| N#Cc1ccc(-c2cc(O)c(O)cc2-c2ccc(C#N)cc2)cc1 [Example 3, 4′,5′-dihydroxy-[1,1′:2′,1″-terphenyl]-4,4″-dicarbonitrile] | 395 nM |
| N#Cc1ccc(-c2cc(O)c(O)c([N+](=O)[O-])c2-c2ccc(C#N)cc2)cc1 [Example 4] | 194 nM |
| N#Cc1ccc(-c2cc(O)c(O)cc2-c2ccc(F)cc2)cc1 [Example 5, 4″-fluoro-4′,5′-dihydroxy-[1,1′:2′,1″-terphenyl]-4-carbonitrile] | 290 nM |
| Oc1cc(-c2ccc(F)cc2)c(-c2ccc(-c3nnn[nH]3)cc2)cc1O [Example 6] | 425 nM |
| Oc1cc(-c2ccc(-c3nnn[nH]3)cc2)c(-c2ccc(-c3nnn[nH]3)cc2)cc1O [Example 7] | 847 nM |
